Consider 18 molecules from patent US20080027141A1, “1,3-Dihydroxyl-9,10-anthraquinone and 3-[(3-amino)-propoxy]- 9,10-anthraquinone derivatives and pharmaceutical compositions comprising the same” (Kaohsiung Medical University, priority 2006, published 2008).

Data set [1] relates to several cancer cell lines. The data set can be described thus: Cytotoxic effects against several cancer cell lines in vitro. Type of data set: cell-based.
Description: The cytotoxicity was determined by colorimetric MTT (3-(4,5-dimethylthiazole-2-yl)-2,5-diphenyl-1H-tetrazolium bromide)(Sigma, St. Louis, Mo.) assay as described previously (Wei, Bai-Luh et al. (2000), Eur. J. Med. Chem., 35, 1089-1098). Briefly, cells (5×10^3/well) were plated in 96-well plates and incubated in medium for 6 h, followed by addition of serial dilutions (50 μL/well) of each of the tested compounds. After incubation at 37° C. for 5 or 6 days, the cells were pulsed with 10 μL of MTT (5 mg/mL) and incubated for an additional 4 h at 37° C. Reduced MTT was measured spectrophotometrically using a Dynatech MR 5000 microplate reader (Dynatech Laboratories, Va.) at 550 nm after lysis of cells with 100 μL of 10% SDS in 0.01 M HCl. Control wells contained medium plus cells (total absorbance) or medium alone (background absorbance).
Data set [2] concerns HepG2 cells (human hepatoma).
Description: (§1) For the microassay, the growth medium was supplemented with 10 mM HEPES buffer (pH 7.3) and incubated at 37° C. in a CO2 incubator.
(§2) The cytotoxicity was determined by colorimetric MTT (3-(4,5-dimethylthiazole-2-yl)-2,5-diphenyl-1H-tetrazolium bromide)(Sigma, St. Louis, Mo.) assay as described previously (Wei, Bai-Luh et al. (2000), Eur. J. Med. Chem., 35, 1089-1098). Briefly, cells (5×10^3/well) were plated in 96-well plates and incubated in medium for 6 h, followed by addition of serial dilutions (50 μL/well) of each of the tested compounds. After incubation at 37° C. for 5 or 6 days, the cells were pulsed with 10 μL of MTT (5 mg/mL) and incubated for an additional 4 h at 37° C. Reduced MTT was measured spectrophotometrically using a Dynatech MR 5000 microplate reader (Dynatech Laboratories, Va.) at 550 nm after lysis of cells with 100 μL of 10% SDS in 0.01 M HCl. Control wells contained medium plus cells (total absorbance) or medium alone (background absorbance). Cell death was calculated as the percentage of MTT inhibition:
(§3) In the experiment, 5-fluorouracil(5-Fu) was used as a positive control.
Data set [3] has as its system HT-29 cells (human colorectal adenocarcinoma).
Description: as §1, §2, §3
Data set [4] has as its system Hep3B cells (human hepatoma).
Description: as §1, §2, §3
Data set [5] concerns Hep3B cells (human hepatoma). In words: In vitro anticancer assay (cytotoxicity), MTT, Hep3B. Conditions: for EC50: Homo sapiens, Hep3B, read-out: Cytotoxicity ED50, Hep3B.
Description: as §1, §2, §3
The subject of data set [6] is HT-29 cells (human colorectal adenocarcinoma). In words: In vitro anticancer assay (cytotoxicity), MTT, HT-29. The following applies: for EC50: Homo sapiens, HT-29, read-out: Cytotoxicity ED50, HT-29.
Description: as §1, §2, §3
Data set [7] concerns HepG2 cells (human hepatoma). The data set can be described thus: In vitro anticancer assay (cytotoxicity), MTT, HepG2. The following applies: for Cytotoxic activity against HepG2 cells (in words): in vitro; for EC50: Homo sapiens, HepG2, read-out: Cytotoxicity ED50, HepG2.
Description: as §1, §2, §3
For data set [8], the system named is MCF-7 cells (human breast adenocarcinoma). In words: In vitro anticancer assay (cytotoxicity), MTT, MCF-7. The following applies: for EC50: Homo sapiens, MCF7, read-out: Cytotoxicity ED50, MCF-7; for Cytotoxic activity against MCF-7 cells (in words): in vitro.
Description: as §1, §2, §3
Data set [9] shares this test system.
Description: as §1, §2, §3
Data set [10] deals with MCF-7 cells. In words: Flow cytometry analysis (cell cycle, sub-G1, propidium iodide). It is filed as cell-based, human. The procedure: DNA contents were analyzed by flow cytometry, and apoptosis was measured by the accumulation of sub-G1 DNA contents in cells. Results were representative of three independent experiments; and
Flow cytometry was used to determine the change of cell cycle of human cancer cells caused by the treatment of a compound according to this invention.
MCF cells (1×10^4 cells/mL) were treated with various concentrations (6.9, 13.7, and 27.5 μM) of Compound 16 for different time periods (24 h, 48 h and 72 h), followed by washing with PBS so as to terminate the reaction. After fixation with 4% paraformaldehyde/PBS (pH 7.4) at room temperature for 30 min, the cells were centrifuged at 1,000 rpm for 10 min and then permeabilized with 0.1% Triton-X-100/0.1% sodium citrate at 4° C. for 2 min. Subsequently, propidium iodide (Sigma) in PBS (10 μg/mL) was added to stain the cells at 37° C. for 30 min. The intensity of fluorescence was measured with a FACScan flow cytometer (Becton Dickinson, Mountain View, Calif.). A minimum of 5000 cell counts was collected for the analysis by LYSIS II Software.
It has been recognized that apoptotic cells have reduced DNA stainability with a variety of fluorochromes (Ojeda, F. et al. (1990), Cell Immunol., 125:535-539; Afanasev, V. N. et al. (1986), FEBS Lett., 194: 347-350). The appearance of cells with low DNA stainability forms a “sub-G1 peak”, which has been considered to be the hallmark of cell death by apoptosis (Darzynkiewicz, Z. et al. (1992), Cytometry, 13, 795-808). […] In this invention, the applicants proposed that the NHA derivatives might induce cell death by the same way. MCF-7 cells were treated with different concentrations of representative Compound 16 for different time periods.

In data set [11] the test system is MCF-7 cells. The data set can be described thus: DNA fragmentation assay (agarose gel electrophoresis). Type of data set: cell-based, human. The following applies: 48 and 72 h incubation, 6.9, 13.7 and 27.5 μM. The procedure: Results were representative of three independent experiments.
DNA fragmentation in general is used to characterize cell death by apoptosis (Wyllic, A. H. et al. (1980), Int. Rev. Cytol., 68:251-306; Arends, M. J. and Wyllic, A. H. (1991), Int. Rev. Exp. Pathol., 32:223-254). Apoptosis of MCF-7 cells after treatment with the representative Compound 16 was also studied by DNA fragmentation assay.
MCF cells (1×10^4 cells/mL) in 150-mm plates were treated with various concentrations (6.9, 13.7, and 27.5 μM) of Compound 16 for different time periods (24 h, 48 h and 72 h), followed by washing with PBS so as to terminate the reaction. After the addition of 100 μL lysis buffer [1% of NP-40 (Sigma) in 20 mM EDTA, 50 mM Tris-HCl, pH 7.5] and mixing, the resultant cell lysates were centrifuged at 14,000 rpm for 5 min and the supernatants were collected. The supernatants were incubated with 50 μL of RNase A (20 mg/mL) and 20 μL of SDS (10%) at 56° C. for 2 h. Thereafter, 35 μL of proteinase K (20 mg/mL) was added and the resultant mixture was incubated at 37° C. overnight. DNA fragments were precipitated after the addition of 150 μL of 10M NH4OAc and 1.2 mL of 100% ethanol at −20° C. overnight. After centrifuging and drying, the thus-obtained DNA pellets were re-suspended in 15 μL Tris-EDTA buffer and electrophoresed on a 1% agarose gel in TBE buffer at 30 V for 8 h. […]

Data set [12] relates to HepG2 cells (human hepatoma). The following applies: Wei, Bai-Luh et al. (2000); read-out: ED50, HepG2 (applicants' earlier study); cited from earlier work.
The test system of data set [13] is Hep3B cells (human hepatoma). Conditions: Wei, Bai-Luh et al. (2000); read-out: ED50, Hep3B (applicants' earlier study); cited from earlier work.

Read-outs that look alike come from different tables or passages of the source.

For the molecule `O=C1c2ccccc2C(=O)c2c(O)cc(O)cc21` [Compound 1, 1,3-dihydroxy-9,10-anthraquinone], in [1], the “Cytotoxic effects against several cancer cell lines (in words)” value is recorded as “failed to show cytotoxic effects”.
For the molecule `O=C1c2ccccc2C(=O)c2c(O)cc(OCCCBr)cc21` [Compound 2, 1-hydroxy-3-(3-bromopropoxy)-9,10-anthraquinone], the “Cytotoxic activity against HepG2 cells (in words)” value in [2] is “no significant cytotoxic activity”. In data set [3], the “Cytotoxic activity against HT-29 cells (in words)” value is given as “no significant cytotoxic activity”. Besides, the “Cytotoxic activity against Hep3B cells (in words)” value in data set [4] is “no significant cytotoxic activity”.
With `O=C1c2ccccc2C(=O)c2cc(O)ccc21` [Compound 3, 3-hydroxy-9,10-anthraquinone], in data set [5] (in vitro), the “Cytotoxic activity against Hep3B cells (in words)” value is “no significant cytotoxic activity”. Further, the “Cytotoxic activity against HT-29 cells (in words)” value in data set [6] (in vitro) is listed as “no significant cytotoxic activity”. Also, the “Cytotoxic activity against HepG2 cells (in words)” value in [7] was “no significant cytotoxic activity”.
In the case of `O=C1c2ccccc2C(=O)c2cc(OCCCBr)ccc21` [Compound 4, 3-(3-bromopropoxy)-9,10-anthraquinone], the “Cytotoxic activity against HepG2 cells (in words)” value in data set [2] was “no significant cytotoxic activity”. Also, in data set [3], the “Cytotoxic activity against HT-29 cells (in words)” value was “no significant cytotoxic activity”. For the same molecule, the “Cytotoxic activity against Hep3B cells (in words)” value in [4] is listed as “no significant cytotoxic activity”.
For the molecule `CC(C)=CCc1c(O)cc(O)c2c1C(=O)c1ccccc1C2=O` [Compound 5, 1,3-Dihydroxy-4-prenyl-9,10-anthraquinone], the EC50 in data set [5] came to 9.09 µM; in data set [8], 172 µM; in [6], 56.2 µM; in [7], 1.23 ± 0.05 µM. Besides, in data set [7], the “Cytotoxic activity against HepG2 cells (in words)” value is “potent cytotoxicity”.
Take `O=c1[nH]cc(F)c(=O)[nH]1` [Compound 5-FU, 5-fluorouracil, reference compound]: the EC50 in data set [5] worked out at 0.55 µM; in [6], 0.57 µM; in data set [7] it was 0.25 µM.
For `CC(C)NCCCOc1cc(O)c2c(c1)C(=O)c1ccccc1C2=O` [Compound 6, 1-Hydroxy-3-[3-(isopropylamino)-propoxy]-9,10-anthraquinone] the same measures were 5.97 µM, 4.72 µM and 5.52 µM.
In the same order, the values of `CC(C)(C)NCCCOc1cc(O)c2c(c1)C(=O)c1ccccc1C2=O` [Compound 7, 3-[3-(tert-Butylamino)-propoxy]-1-hydroxy-9,10-anthraquinone] are 6.8 µM, 7.93 µM and 5.3 µM.
For `CCCCNCCCOc1cc(O)c2c(c1)C(=O)c1ccccc1C2=O` [Compound 8, 3-[3-(Butylamino)-propoxy]-1-hydroxy-9,10-anthraquinone] the same measures were 7.93 µM, 6.52 µM and 4.42 µM.
As to `CCN(CC)CCCOc1ccc2c(c1)C(=O)c1ccccc1C2=O` [Compound 9, 3-[3-(Diethylamino)-propoxy]-9,10-anthraquinone], the EC50 was 12.8 µM in [5], 16.1 µM in data set [8], 11.9 µM in data set [6] and 17.2 µM in data set [7].
For `CCCNCCCOc1ccc2c(c1)C(=O)c1ccccc1C2=O` [Compound 10, 3-[3-(Propylamino)-propoxy]-9,10-anthraquinone] the same measures were 12.4 µM, 8.36 µM, 6.19 µM and 8.92 µM.
Turning to `CC(C)NCCCOc1ccc2c(c1)C(=O)c1ccccc1C2=O` [Compound 11, 3-[3-(Isopropylamino)-propoxy]-9,10-anthraquinone], the EC50 is 11.5 µM in data set [5], 11.5 µM in data set [8], 7.12 µM in [6] and 5.39 µM in [7]. The “Cytotoxic activity against HepG2 cells (in words)” value in data set [2] is “potent cytotoxic activity”.
As to `CCCCNCCCOc1ccc2c(c1)C(=O)c1ccccc1C2=O` [Compound 12, 3-[3-(Butylamino)-propoxy]-9,10-anthraquinone], the EC50 in data set [5] was determined as 14.2 µM; in [8], 10.4 µM; in data set [6] it was 14.5 µM; in data set [7], 7.12 µM.
For `CC(C)CNCCCOc1ccc2c(c1)C(=O)c1ccccc1C2=O` [Compound 13, 3-[3-(Isobutylamino)-propoxy]-9,10-anthraquinone] the same measures were 9.26 µM, 14.2 µM, 7.72 µM and 10.4 µM.
Consider `CC(C)(C)NCCCOc1ccc2c(c1)C(=O)c1ccccc1C2=O` [Compound 14], for which the EC50 in data set [2] was 17.5 µM; in data set [3] it was 12.9 µM; in data set [9], 20.8 µM; in data set [4], 23.2 µM.
In the case of `O=C1c2ccccc2C(=O)c2cc(OCCCNC3CCCCC3)ccc21` [Compound 15, 3-[3-(Cyclohexylamino)-propoxy]-9,10-anthraquinone], the EC50 in [5] was 4.96 µM; in data set [8], 5.79 µM; in data set [6] it was 3.86 µM; in data set [7] it was 16 µM. The “Cytotoxic activity against HT-29 cells (in words)” value in data set [3] is given as “stronger cytotoxic activities”. Further, the “Cytotoxic activity against MCF-7 cells (in words)” value in data set [8] is recorded as “stronger cytotoxic activities”. The “Cytotoxic activity against Hep3B cells (in words)” value in [4] was “stronger cytotoxic activities”.
Consider `CN1CCN(CCCOc2ccc3c(c2)C(=O)c2ccccc2C3=O)CC1` [Compound 16], for which the EC50 in data set [5] came to 13.7 µM; in [8], 3.02 µM; in data set [6] it was 4.67 µM; in [7] it was 8.41 µM. The “Cytotoxic activity against HepG2 cells (in words)” value in [2] is reported as “less potent cytotoxic activity”. The “Cytotoxic activity against HT-29 cells (in words)” value in [3] is listed as “potent cytotoxic activity”. Further, the cell cycle effect entry in the data set with MCF-7 cells [10] (6.9, 13.7, 27.5 μM) was “arrest G2/M and S phases”. For the same molecule, the “sub-G1 peak in DNA histograms” value with MCF-7 cells [10] (6.9, 13.7, 27.5 μM, 24, 48, 72 h) was “detected”. Besides, the maximum apoptosis cells with MCF-7 cells [10] (at 72 h) is listed as 19.97%. In addition, the “Cytotoxic activity against MCF-7 cells (in words)” value in data set [8] is listed as “potent cytotoxic activity”. Moreover, the DNA fragmentation result in the data set on MCF-7 cells [11] is “significantly observed”. In addition, the “Cytotoxic activity against Hep3B cells (in words)” value in data set [4] is reported as “less potent cytotoxic activity”.
Turning to `CN(C)CCCOc1cc(O)c2c(c1)C(=O)c1ccccc1C2=O` [Compound 19, 1-hydroxy-3-[3-(dimethylamino)-propoxy]-9,10-anthraquinone], the EC50 in data set [12] was roughly 2.6 µM; in data set [13], roughly 7.1 µM.
